Reference: patent publication US8673869B2, “Determinants of sensitivity to chemotherapeutic agents” (Western Sydney Local Health District, priority 2004, dated 2014)

Experiments:
[1] = tested on: CHO-K1 cells and SC2 cells; assay: Carboplatin and oxaliplatin cell survival by modified MTS assay; type: cell-based, Chinese hamster; conditions: 2 hr drug exposure, 6 days incubation, FIG. 9
Description: FIG. 9. Effect of carboplatin (A) and oxaliplatin (B) on cell survival in CHO-K1 cells (diamonds) and SC2 cells (squares). Cell survival was measured by modified MTS assay. Results are expressed as a percentage of the vehicle-treated control, as a mean and standard error of triplicate wells from six independent experiments. Results were subjected to a paired t-test where * is p<0.05 and ** is p<0.005.
CHO-K1 and SC2 cells were each seeded into 24-well plates, incubated overnight then exposed to a range of concentrations of carboplatin or oxaliplatin for 2 hr. The drugs were removed, wells washed and the growth media replaced. Cells were incubated for 6 days and cell proliferation measured using a modified colorimetric MTS (3-(4,5-dimethylthiazol-2-yl)-5-(3-carboxy-methoxyphenyl)-2-(4-sulfophenyl)-2H-tetrazolium, inner salt) proliferation assay. MTS solution was added to each well and colour development measured on a plate reader at 490 nm.

[2] = tested on: human ovarian and breast cell lines; assay: Relative cisplatin sensitivity (IC37) by MTS proliferation assay; type: cell-based; conditions: 72 hr drug exposure, FIG. 7B
Description: FIG. 7. Expression of ANKRD1 in ovarian and breast cell lines. RNA was extracted from a range of normal and malignant ovarian and breast cell lines. ANKRD1 expression was measured by real-time PCR. A. Results are shown as relative mRNA levels, corrected for human P0 (acidic phosphoprotein P0; also known as 36B4, part of the 60S ribosomal RNA complex) and 18S rRNA. All cell lines are human. HOSE 17.1 and BRE-80 are normal ovarian and breast cell lines respectively; the remaining cell lines are malignant. B. Cisplatin (CDDP) sensitivity was determined for 13 of the cell lines. Survival was determined by MTS assay after exposing the cells to drug for 72 hr. The IC37 is shown for each cell line, results are the mean determined from between two and seven independent experiments. Asterix indicates IC37 not determined. C. Association between growth inhibition by cisplatin (IC37) and expression of ANKRD1 mRNA in 13 cell lines.
Relative cisplatin sensitivity was measured in 13 cell lines using a colorimetric proliferation assay. Cells were seeded into 96-well plates in a volume of 100 μl at 500 to 2000 cells per well. […] IC37 values were calculated for each cell line from survival curves, using data generated from between two to seven independent experiments.

CHO-K1 cells = assay: Cisplatin sensitivity by colony formation (clonogenic assay); type: cell-based, Chinese hamster; conditions: 10 uM cisplatin for 2 hr, colony formation over 6 days, percentage of vehicle-treated control
Description: (§1) FIG. 2. Cisplatin sensitivity of CHO cell lines. Parental CHO-K1 and the platinum-sensitive clone SC2 were exposed to a range of cisplatin (CDDP) concentrations for 2 hrs. The drug was then removed and the surviving cell fraction was determined by colony formation over 6 days. Colonies were fixed, stained with 0.1% crystal violet and counted. The results are expressed as a percentage of vehicle-treated control (mean and standard error from duplicate plates in at least three separate experiments) at differing cisplatin (CDDP) concentrations. The present inventors have used a novel approach to identify genes that determine sensitivity to platinum-based chemotherapeutic agents. This strategy utilized the mutant Chinese hamster ovary (CHO) cell line SC2 which is more sensitive to platinum than the parent CHO-K1 cell line. Parental CHO-K1 and mutant CHO cell lines were provided as a gift from Dr I Hickson and Dr C Robson (Imperial Cancer Research Fund, Oxford UK) (Robson, C, et al, 1985). The strategy adopted is outlined in FIG. 1. CHO-K1 cells were mutagenised with ethyl methane sulphonate (EMS). Mutants with altered sensitivity to cisplatin were isolated using replica plating. […] The drug was then removed and the surviving cell fraction was determined by colony formation over 6 days. Colonies were fixed, stained with 0.1% crystal violet and counted. […]

SC2 cells [3] = assay: as above; type: cell-based, Chinese hamster; conditions: 10 uM cisplatin for 2 hr, colony formation over 6 days, percentage of vehicle-treated control
Description: as §1

SC2 cells [4] = assay: Clonogenic survival of ANKRD1-transfected SC2 clones exposed to cisplatin; type: cell-based, Chinese hamster; conditions: SC2 clones transfected with rat ANKRD1 cDNA vs untransfected and vector control, 6 μM cisplatin, FIG. 5
Description: FIG. 5. […] Rat ANKRD1 cDNA was transfected into SC2 cells and transfected clones selected. ANKRD1-transfected clones were exposed to 6 μM cisplatin and the surviving fraction was measured by clonogenic assay. Survival in 4 transfected clones (SC2+ANKRD1) was compared with untransfected SC2 cells and empty vector-control transfected SC2 cells (SC2+vector).
To determine whether ANKRD1 has the ability to decrease sensitivity to cisplatin, rat ANKRD1 cDNA in the pcDNA3.1 expression vector, under the control of a CMV promoter, (a gift from the laboratory of Prof. L. Kedes, University of Southern California, USA) was transfected into the ANKRD1-deficient, platinum-sensitive SC2 mutant using Lipofectamine 2000 (Invitrogen Life Technologies, Carlsbad, Calif., USA). Transfected clones were selected and maintained in 400 μg/ml G-418 (Gibco-BRL).

ANKRD1 = ANKRD1 mRNA by real-time PCR in siRNA transfected CHO-K1 cells; type: cell-based, Chinese hamster; conditions: pools of stably transfected CHO-K1 cells, relative to parent CHO-K1, FIG. 6A
Description: FIG. 6. Increased sensitivity to cisplatin in CHO-K1 cells following reduction of ANKRD1 expression by siRNA. CHO-K1 were transfected with one of three inserts designed to knock-down ANKRD1 expression by targeting regions of the open reading frame encoding the N-terminus (siRNA41; SEQ ID NO: 5), the central portion (siRNA58; SEQ ID NO: 6) or the C-terminus (siRNA77; SEQ ID NO: 7). Pools (P1) of siRNA transfected cells were selected and maintained in hygromycin B. A. ANKRD1 mRNA was measured by real-time PCR. Results are shown as a percentage of the parent CHO-K1 ANKRD1 mRNA levels and corrected for rodent GAPDH (glyceraldehyde-3-phosphate dehydrogenase) and 18S rRNA. B. Cisplatin (CDDP) sensitivity in CHO-K1 and siRNA transfected cells was measured by clonogenic assay. The results are expressed as the mean and standard error of duplicate plates from at least three separate experiments.
To confirm that ANKRD1 was able to modulate platinum sensitivity, the converse hypothesis was tested, that decreasing ANKRD1 expression in the resistant, CHO-K1 cell line would increase sensitivity. Three 19 bp siRNA oligonucleotides were designed to regions encoding the N- and C-terminus as well as to a central portion of the coding region of the CHO ANKRD1 sequence. The sequences of the sense strands of these siRNA oligonucleotides are shown in SEQ ID NOs: 5 (siRNA41), 6 (siRNA58) and 7 (siRNA77). […]
To examine ANKRD1 mRNA expression, 100 ng of cDNA used as templates in real-time PCR using the ABI PRISM 7700 Sequence Detection System (PE Applied Biosystems). Samples were made up in a final volume of 25 μL with Platinum Quantitative PCR Supermix-UDG (Invitrogen) and 250 nM of each primer set. […] Relative concentrations of ANKRD1 and housekeeping genes were determined by comparison of Ct values to a standard curve produced using a sample containing cDNA produced from RNA of known concentration. […]

Row | Molecule | resistance of CHO-K1 cells compared to SC2 cells [1] | ANKRD1 expression (mRNA) (ANKRD1) | also measured
1 | N.N.O=C([O-])C1(C(=O)[O-])CCC1.[Pt+2] [carboplatin] | significantly more resistant |  | 
2 | N.N.[Cl][Pt][Cl] [cisplatin] |  |  | relative cisplatin response (IC37) ([2]; COLO 316, T-47D and MCF-7 cell lines): among the most resistant; relative cisplatin response (IC37) ([2]; HOSE 17.1, A2780 and PEO1 cell lines): amongst the most sensitive; cell survival (CHO-K1 cells): greater than 80%; cell survival (SC2 cells [3]): less than 2%; resistance to cisplatin after ANKRD1 transfection (SC2 cells [4]): increased resistance
3 | O=C1[O][Pt]2([NH][C@@H]3CCCC[C@H]3[NH]2)[O]C1=O [oxaliplatin] | significantly more resistant |  | 
4 | siRNA77: 19 bp siRNA targeting the region of the ANKRD1 open reading frame encoding the C-terminus, expressed from pSilencer 2.1-U6 hygro vector (nucleic acid, the letters are possibly those of the target site, 19 bp siRNA targeting the region of the ANKRD1 open reading frame encoding the C-terminus, expressed from pSilencer 2.1-U6 hygro vector) GATCCCGTGGAACCAAAGCAATATTCTTCAAGAGAGAATATTGCTTTGGTTCCATTTTTTGGAAA |  | similarly reduced | 
5 | siRNA41: 19 bp siRNA targeting the region of the ANKRD1 open reading frame encoding the N-terminus, expressed from pSilencer 2.1-U6 hygro vector (nucleic acid, the letters are possibly those of the target site, 19 bp siRNA targeting the region of the ANKRD1 open reading frame encoding the N-terminus, expressed from pSilencer 2.1-U6 hygro vector) GATCCCAGTTCCAGTTGTGAAGGAATTCAAGAGATTCCTTCACAACTGGAACTTTTTTTGGAAA |  | virtually ablated | 
6 | siRNA58: 19 bp siRNA targeting the central portion of the ANKRD1 coding region, expressed from pSilencer 2.1-U6 hygro vector (nucleic acid, the letters are possibly those of the target site, 19 bp siRNA targeting the central portion of the ANKRD1 coding region, expressed from pSilencer 2.1-U6 hygro vector) GATCCCGTTCCGTGATATGCTTGAATTTCAAGAGAATTCAAGCATATCACGGAATTTTTTGGAA |  | similarly reduced | 
